PMC11725581, “Developing novel Lin28 inhibitors by computer aided drug design” (Cell Death Discovery, 2025)

Tests used:
[1] = test system: Kuramochi cells; assay: Cell proliferation (Incucyte), Kuramochi; type: cell-based; details: Lin28a/Lin28b-positive
Text: (§1) To further evaluate whether the suppressive effects of Ln268 are specific to Lin28-positive cancer cells, we compared cell growth rates of DuNE (Lin28b-positive line) and Du145 (Lin28b-negative line), both of which are Lin28a-negative. DuNE has the same genomic background with Du145 except for the transduction of the SRRM4 gene. […] Furthermore, Ln268 had no impact on the cell growth of DuNE(KO) cells, in which the Lin28b gene was knocked out by CRISPR (Fig. 5C). […] We also tested several ovarian and endometrial cancer cell lines with different Lin28a and Lin28b expression profiles (Fig. 5E).

[2] = test system: DuNE(KO) cells (Lin28b gene knocked out by CRISPR); assay: Cell proliferation, DuNE(KO) cells; type: cell-based; details: Lin28b knockout, 72 h
Text: as §1

[3] = test system: DuNE cells; assay: Colony formation assay, DuNE cells; type: cell-based; details: 14 days, vs vehicle (~50 colonies)
Text: CSCs have characteristic tumorigenic, self-renewal, and differentiation properties. The self-renewal ability is hijacked by CSCs that makes them both tumorigenic and capable of sustaining long-term tumor growth, which can be evaluated by 3D spheroid and colony formation assays. We established a DuNE spheroid model in which DuNE cells formed 3D spheroids in 96-well plates (Figure S3). By integrating this 3D culture with the Incucyte live-cell imaging system, we quantified the sizes of the spheroid growth over 0–6 days to generate a spheroid growth curve. Using this model system, we treated the DuNE spheroids with increasing doses (0–100 μM) of C1632, Ln15, and Ln268 for 0–6 days. […] In addition, classic colony formation assays were used to measure the stemness in the DuNE model. Colony formation counts, which were ~50 under vehicle treatment after 14 days, decreased by 22% in C1632-treated plates, and by 75% and 96% in the Ln15 and Ln268 treated plates, respectively (Fig. 4D).
In the colony formation assays, cancer cells were seeded in 0.7% soft agar in a 6-well plate, with a 1% soft agar bottom base coating. Cells were allowed to grow for 14 days to form colonies. Colonies were stained with crystal violet and imaged by stitching 5X field images together to capture the entire well (Zeiss light microscope [Carl Zeiss]). Colony numbers were counted according to their diameters (100-300um or >300um). Three independent biological replicates were performed for all the assays.

[4] = test system: DuNE cells; assay: Drug-drug interaction (SynergyFinder) in DuNE cells; type: cell-based; details: score higher than 10 = synergistic
Experimental: Fig. 6 Ln268 enhances stress inducers to inhibit cancer cell growth. A, B DuNE cells were transfected with GFP-tagged Lin28b together with either RFP-tagged G3BP1, YB-1, or DCP1. Cells were then challenged with ARS (A), cisplatin (CP) or etoposide (etop) (B) to induce a stress condition. Confocal microscope detected the subcellular localization of Lin28b. C, D Du145, DuNE and DuNE(KO) cells were treated with ARS (C), cisplatin (CP) or etoposide (etop) (D). Percentage of cells forming SGs was counted in five random fields from two replicate experiments. E DuNE and DuNE(KO) cells were treated with ARS, cisplatin or etoposide. Cell viability was measured by Incucyte. F DuNE cells were transfected with GFP-tagged Lin28b and treated with ARS together with C1632, Ln15, Ln268, or RNase. Confocal microscope detected SGs formation mediated by Lin28b. Fluorescence images were captured, and SGs sizes and numbers were calculated as shown. […] Drug interactions were calculated by SynergyFinder, with a synergy score higher than 10 representing synergistic relationship. […]
We subsequently investigated whether Ln268 could potentiate anticancer effects of stress inducers to block cancer cell growth in vitro. First, we determined the IC50 values of each inhibitor, which were then used to formulate drug-drug interactions of Ln268 with cisplatin, etoposide, or ARS (Figure S5). […]

[5] = biological target: T1, Lin28b ZKD (Homo sapiens, UniProt Q6ZN17); assay: 1H-15N HSQC NMR of Lin28b-ZKD with ligand; type: binding; details: ligand added in 20:1 molar ratio
T1 sequence (Q6ZN17 127-166 limits assumed): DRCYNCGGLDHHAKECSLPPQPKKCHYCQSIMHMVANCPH
Text: Given that Ln268 is derived from the parent compound Ln15, we wanted to assess whether the improved properties of Ln268 were linked to a potential difference in its interaction with Lin28 ZKD. To this end, we collected ^1H-^15N HSQC spectra of Lin28b-ZKD, Lin28b-ZKD + Ln15, and Lin28b-ZKD + Ln268. RNA binding proteins (RBPs) commonly have binding pockets that are intrinsically disordered, as evidenced by the narrow chemical shift dispersion observed in the HQSC of Lin28b-ZKD alone (Fig. 3D). Addition of either Ln15 or Ln268 led to changes in the chemical shifts of ca. 20 residues, consistent with the change in conformation of the Lin28b-ZKD segment which encompasses residues 137–160 (three of which are prolines) upon RNA binding (Fig. 3E). Although many of the peak shifts are the same for the Ln15 and Ln268 containing samples, there are around 7 resonances where the peaks disappear in the case of Ln268.
NMR spectra were recorded at 5 °C on a Bruker Avance III 850 MHz spectrometer, equipped with a TCI cryoprobe. ^1H-^15N HSQC experiments were recorded on ^13C/^15N-labeled Lin28b ZKD (230 μM), in 20 mM d-Tris-HCl (pH 7.5), 100 mM NaCl, 1 mM d-DTT, 0.02% NaN3, 0.25 mM ZnCl2 + 1 mM IDA, and 10% D2O, to which unlabeled Ln15 and Ln268 was added, respectively. The time domain matrix was 4k by 512. Four scans were acquired per t1 increment. Spectra were processed and plotted using Topspin to a final size of 8k by 1k. For the overlays, the levels were set to the same base level in all cases, with a multiplication factor of 1.1.

[6] = test system: TOV-112D cells; assay: Cell proliferation (Incucyte), TOV-112D; type: cell-based; details: Lin28a/Lin28b-positive
Text: as §1

residues of Lin28b-ZKD with changed chemical shifts (1H-15N HSQC) [5]: ca. 20 residues
resonances of Lin28b-ZKD whose peaks disappear (1H-15N HSQC) [5]: around 7 resonances
SMILES: O=c1[nH]c(Nc2ccc(F)cc2O)cs1 [Ln268]
effect on growth of Kuramochi cells [1]: suppressed the growth
effect on cell growth of DuNE(KO) cells [2]: no impact
decrease of colony formation counts [3]: 96%
synergy score, Ln268 + cisplatin [4]: 19.39
synergy score, Ln268 + etoposide [4]: 12.77
effect on growth of TOV-112D cells [6]: suppressed the growth
